# According to patent publication US10130598B2, “Methods and compositions for administration of 3-halopyruvate and related compounds for the treatment of cancer” (The Johns Hopkins University, priority 2008, dated 2018):
# Key:
# [1] = system: VX2 tumor; experiment: Oral administration of 3-BrPA in the VX2 liver tumor rabbit model; assay type: in vivo, New Zealand White rabbits
# Experimental: New Zealand White rabbits were used in the study. All rabbits, carriers and recipients, were anesthetized with a mixture of acepromazine (2.5 mg/kg; Phoenix, St. Joseph, Mo.) and ketamine hydrochloride (44 mg/kg; Phoenix) administered intramuscularly. The VX2 tumor cell suspension was first injected into the hind legs of carrier rabbits and grown for 2 weeks. Resultant tumors were harvested from each carrier and a tumor suspension was prepared from each harvested tumor by dissection of viable tumor tissue and aseptic mincing.
# For the rabbits that were going to receive the VX2 tumor implanted in the liver, intravenous access was gained via a marginal ear vein and 0.1-0.2 ml (2.5-5 mg) of sodium pentobarbital (Abbott Laboratories, Abbott Park, Ill.) was given periodically to maintain anesthesia. The abdomen of each recipient rabbit was shaved and disinfected with ethanol and povidine iodine. The liver of the rabbit was exposed by a midline incision, then an aliquot of the tumor cell suspension (0.2 ml) was injected directly using a 21-gauge angiocatheter into the left lobe of the liver in order to develop a solitary lesion with adequate surrounding liver parenchyma. The abdomen was closed in two layers. The tumor was allowed to grow in the rabbit livers for 7 days. Pain and distress levels were assessed by daily by monitoring food intake, feces and urine production and finally checking for signs of guarding or reluctance to move when touched.
# Oral administration of 3-BrPA dissolved in PBS was examined using the VX2 tumor model, an animal model for hepatocellular carcinoma (described above). VX2 tumors were allowed to grow the livers of 12 New Zealand White rabbits for 10 days. Tumor bearing rabbits were divided in 4 groups. Group 1 (n=3) received 5 mg of 3-BrPA in 2.75 ml of Phosphate Buffered Saline (PBS) orally once a day, group 2 (n=3) received 10 mg of 3-BrPA in 2.75 ml of PBS orally once a day, group 3 (n=3) received 50 mg of 3-BrPA in 2.75 ml of PBS orally once a day and group 4 (control, n=3) received no treatment. Median survival for the animals in group 1 (n=3), receiving 5 mg of 3-BrPA in 2.75 ml of PBS, was 66 days. Animals in group 2 (n=3), receiving 10 mg of 3-BrPA in 2.75 ml of PBS, survived for 70 days. All the animals in group 3 (n=3), receiving 50 mg of 3-BrPA in 2.75 ml of PBS expired within 24 hours of oral administration of the first dose.
# To test whether buffering 3-BrPA with NaHCO3 would allow oral administration of a higher dose of 3-BrPA, the maximum tolerated dose of orally administered 3-BrPA dissolved in NaHCO3 was determined. As in Example 1, the VX2 tumor model was used, with VX2 tumors grown in the livers of 12 New Zealand White rabbits for 10 days. Once again, the tumor bearing rabbits were divided in 4 groups. […] All animals in group 3 (n=3) expired within 24 hours after receiving 1000 mg of 3-BrPA in 2.75 ml of NaHCO3 orally.
# The effect of pH on the survival of rabbits bearing VX2 liver tumors that were treated with the MTD of 3-BrPA buffered with NaHCO3 was examined. The VX2 tumor model was once again used, as described above. A total of 20 New Zealand White rabbits were included in the study. All rabbits received VX2 tumor implantation as described above. The tumor was allowed to grow in the rabbit livers for 7 days. Rabbits were divided in 4 groups. Group 1 (n=6) received 500 mg of 3-BrPA in 2.75 ml of NaHCO3 (1 M, resulting in pH 4), group 2 (n=2) received 500 mg of 3-BrPA in 2.75 ml of PBS (resulting in pH<2), group 3 (n=6) received 500 mg of 3-BrPA in 2.75 ml of NaHCO3 (2 M, resulting in pH 7) and group 4 (n=6) received no treatment (control group). All drugs were administered orally once a day.
# [2] = system: MDA MB 231 cells; experiment: Luminescence ATP assay, MDA MB 231; assay type: cell-based
# Experimental: Cytotoxicity of 3-BrPA was evaluated by the IC50 values, representing the drug concentration which depletes ATP by 50% compared to non-treated control. On day 1, cells were seeded into 96-well plates in a volume of 100 μl per well. On day 2, the medium of all wells was removed and an aliquot of 100 μl of media having serial dilutions of 3-BrPA in PBS, NaHCO3, NaOH, KOH and KHCO3 was added to the appropriate well. After 24 h of drug exposure cytotoxic effects of 3-BrPA were monitored by cellular ATP level using CellTiter-Glo™ assay reagents from Promega Corp (Madison, Wis.). Briefly, 100 μl assay reagent was added to each well and mixed at room temperature for 2 min to develop luminescent signal. The luminescence intensity (cps) from each sample was determined with a spectrometer (Model Victor III, Perkin Elmer, Mass.). Relative luminescence was calculated in proportion to the numbers of living cells per sample well. The results are expressed as the mean of three independent experiments. The intracellular ATP contents were calculated and normalized by equal cell number and expressed as the percentage of the control cells. The IC50 values were estimated graphically from dose-response plots.
# The anti-metabolic effect of 3-BrPA on MCF7 and MDA MB231 cells was examined using luminescence ATP assays, as described above. […]
# [3] = system: tumors implanted in rabbit livers; conditions: cited from earlier work
# [4] = MTD of 3-BrPA buffered with 2.75 ml of NaHCO3
# [5] = MTD of 3-BrPA buffered with NaHCO3
smiles,measurement,setting,value
"O=C(O)C(=O)CBr [3-BrPA, 3-bromopyruvate]",Median survival,[1]; 5 mg of 3-BrPA in 2.75 ml of PBS orally once a day,66 days
same,Survival,[1]; 10 mg of 3-BrPA in 2.75 ml of PBS orally once a day,70 days
same,Median survival,[1]; 50 mg of 3-BrPA in 2.75 ml of NaHCO3 (1M) orally once a day,60 days
same,Time to death after first oral dose (all animals expired),[1]; 50 mg of 3-BrPA in 2.75 ml of PBS orally,≤ 24 h
same,"Animal survival, Kaplan Meier analysis","[1]; 500 mg in 2.75 ml of NaHCO3 (1 M, resulting in pH 4), orally once a day, compared to groups 2, 3 and 4",significant survival benefit
same,Median survival time,[1]; 500 mg of 3-BrPA in 2.75 ml of NaHCO3 orally once a day,100 days
same,Outcome of unbuffered 3-BrPA,"[1]; 500 mg, unbuffered, pH<2, oral",immediate death
same,Time to death (all animals expired),[1]; 1000 mg of 3-BrPA in 2.75 ml of NaHCO3 orally,≤ 24 h
same,Survival longer than rabbits that did not receive 3-BrPA,[1]; [4],79%
same,Survival longer than rabbits treated with the MTD of 3-BrPA buffered with PBS,[1]; [4],42%
same,Cause of death,[1]; [5],died of aspiration
same,Mean liver tumor size,[1]; [5],< 0.5 cm
same,Metastases on pathology,[1]; [5],no metastases
same,Mean liver tumor size,[1]; all other groups,> 8 cm
same,Metastases on pathology,[1]; all other rabbits,widespread metastases
same,Increase of MTD compared to the MTD of 3-BrPA in PBS,[1]; buffered with 2.75 ml of 1M NaHCO3,50 fold
same,Maximum tolerated dose (MTD),"[1]; buffered with 2.75 ml of 1M NaHCO3, oral",500 mg
same,Effectiveness as a cancer therapeutic,"[1]; buffering conditions that resulted in a pH>6 (500 mg in 2 M NaHCO3, pH 7)",less effective
same,Maximum tolerated dose (MTD),"[1]; dissolved in 2.75 ml of PBS, oral",10 mg
same,ATP level (bioluminescent quantification),[2],dose and time dependent energy (ATP) depletion
same,Tumor eradication,[3]; administered directly into the liver by intra-arterial injection,completely eradicate tumors
same,Therapeutic dose,"[3]; in 25 ml of PBS, continuous 1 hour intra-arterial infusion",1.75 mM
same,Biodistribution: tumor uptake,[3]; intra-arterially delivered,high tumor uptake
same,Effects on healthy tissue,[3]; intra-arterially delivered,no negative effects on healthy tissue
